Laboratory results as given in patent US20100173991A1, “METHOD FOR THE SYNTHESIS OF A-RING AROMATIZED ACETYL MINOCYCLINES” (priority 2007, published 2010).
Where a name gives a salt, the structure may show the parent alone.

How the values were obtained:
[1] = tested on: Astroglia cells, non neoplastic embryonal astrocyte cell line of the rat, damaged by H2O2; assay type: cell-based; details: 30 min pre-incubation with 1.0, 5.0 or 25.0 μM, then 1.0 or 3.0 mM H2O2 for 2 hours; microscopic assessment of cell shape and mitochondria
Procedure: The test of the cell-protecting properties of the substances produced in the inventive method was carried out, exemplarily for a pure form of pentaacetyl cyclin of Formula II, by means of an astrocyte damaging model. This model is used for the examination of neurodegenerative diseases caused by oxidative stress or for the test of cell-protecting substances that can avoid or reduce such damage. In the exemplary model astrocytes are damaged by hydrogen peroxide (H2O2) and afterwards the functionality and morphology of the cells and mitochondria are microscopically assessed. An overproduction of H2O2 as reactive oxygen species (ROS) is considered to be, amongst others, the cause for many neurodegenerative processes and diseases in the CNS, such as stroke, Alzheimer's disease Parkinson's disease, post-traumatic injuries of the brain and spinal cord. Astonishingly, already much lower doses of pentaacetyl cyclin of Formula II could considerably reduce the damage of the mitochondria compared to the comparative substance minocycline hydrochloride (Example 3 and FIG. 4).
Astroglia cells, i.e. non neoplastic embryonal astrocyte cell line of the rat [Chamaon, K., Kirches, E., Kanakis, D., Braeuninger, S., Dietzmann, K., and Mawrin, C. (2005). […] A Zeiss Axiophot fluorescence microscope with CCD camera (AxioCam MRc) was used for the visual inspection and documentation. […]

E. coli C 600 hfc strain = experiment: Antibiotic effect in the agar diffusion test; assay type: cell-based; details: filter paper sheets soaked with DMSO solutions 100 μM to 2.5 mM; LB agar, 37° C., 24 hours
Procedure: The test of the antibiotic effect of the pentaacetyl cyclin obtained in the inventive method was performed by using an E. coli strain (Embodiment 4). […] The liquid culture (cultivated in LB-Lennox-L-Broth-Base for 24 hours) of an E. coli suspension (150 μl) of the C 600 hfc strain was evenly distributed on LB agar (Lennox-L-Agar, Gibco) by means of a sterile Drigalski spatula. Afterwards, sterile filter paper sheets (diameter 5.3 mm) that have been soaked with sterile DMSO solutions and different concentrations (100 μM to 2.5 mM) of minocycline hydrochloride or pentaacetyl cyclin (Formula II) were placed on the breeding ground. After the incubation of the agars at 37° C. for 24 hours, the antibiotic activity of the substances was assessed on the basis of the diameters of the inhibiting areolas that become visible due to the missing opacification by bacteria.

SMILES: CN(C)c1ccc(O)c2c1C[C@H]1C[C@H]3[C@H](N(C)C)C(O)=C(C(N)=O)C(=O)[C@@]3(O)C(O)=C1C2=O [minocycline hydrochloride, Minocycline hydrochloride, reference compound]
- concentration showing protective effect against H2O2-induced damage of cells/mitochondria [1]: 25 µM

SMILES: CC(=O)NC(=O)c1c(OC(C)=O)c2c(c(N(C)C)c1OC(C)=O)CC1Cc3c(N(C)C)ccc(OC(C)=O)c3C(=O)C1=C2OC(C)=O (stereo not drawn) [pentaacetyl cyclin, A-ring aromatized pentaacetyl minocycline]
- concentration showing protective effect against H2O2-induced damage of cells/mitochondria [1]: 1.0 µM
- growth inhibition of E. coli (inhibiting areolas) (E. coli C 600 hfc strain): does not show any growth inhibition
